Test results reported in patent US8987249B2, “Substituted 2-Aza-bicyclo[2.2.1]heptane-3-carboxylic acid (benzyl-cyano-methyl)-amides inhibitors of Cathepsin C” (Boehringer Ingelheim International GmbH, priority 2013, dated 2015).

What was measured:
[1] = Determination of metabolic stability with human liver microsomes; conditions: pooled human liver microsomes; for half-life at 1 μM: human, pH 7.6
Procedure: Determination of Metabolic Stability with Human Liver Microsomes
The metabolic degradation of the test compound is assayed at 37° C. with pooled human liver microsomes. The final incubation volume of 100 μl per time point contains TRIS buffer pH 7.6 (0.1 M), magnesium chloride (5 mM), microsomal protein (1 mg/ml) and the test compound at a final concentration of 1 μM. Following a short preincubation period at 37° C., the reactions are initiated by addition of beta-nicotinamide adenine dinucleotide phosphate, reduced form (NADPH, 1 mM) and terminated by transferring an aliquot into acetonitrile after different time points. Additionally, the NADPH-independent degradation is monitored in incubations without NADPH, terminated at the last time point. The [%] remaining test compound after NADPH independent incubation is reflected by the parameter c (control) (metabolic stability). The quenched incubations are pelleted by centrifugation (10,000 g, 5 min). An aliquot of the supernatant is assayed by LC-MS/MS for the amount of parent compound.
The half-life (t½ INVITRO) is determined by the slope of the semilogarithmic plot of the concentration-time profile.

[2] = target: recombinant human DPPI (Cathepsin C) (Homo sapiens (Human), UniProt P53634); experiment: Inhibition of human DPPI (Cathepsin C); assay type: biochemical; conditions: substrate Gly-Arg-AMC
Sequence of recombinant human DPPI (Cathepsin C) (P53634 231-394): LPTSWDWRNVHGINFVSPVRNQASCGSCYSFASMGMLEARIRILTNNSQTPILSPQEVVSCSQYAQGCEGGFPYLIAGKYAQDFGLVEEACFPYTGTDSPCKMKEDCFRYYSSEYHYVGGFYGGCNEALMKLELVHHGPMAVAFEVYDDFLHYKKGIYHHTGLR
Sequence of recombinant human DPPI (Cathepsin C) (P53634 395-463): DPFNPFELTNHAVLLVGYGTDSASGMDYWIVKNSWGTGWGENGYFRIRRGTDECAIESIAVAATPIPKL
Sequence of recombinant human DPPI (Cathepsin C) (P53634 25-134): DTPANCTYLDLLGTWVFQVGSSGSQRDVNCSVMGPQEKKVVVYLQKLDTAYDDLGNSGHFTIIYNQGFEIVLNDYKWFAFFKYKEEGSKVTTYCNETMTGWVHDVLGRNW
How it was run: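 Recombinant human DPPI in MES buffer pH 6.0 (5 mM DTT, 0.1% BSA); fluorogenic substrate at 50 μM final, 30 min at room temperature, stopped with 1 μM Gly-Phe-DMK. Background-subtracted fluorescence expressed as percent of vehicle control; IC50 derived.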

[3] = target: recombinant human Cathepsin K (Homo sapiens (Human), UniProt P43235); experiment: Inhibition of human Cathepsin K; assay type: biochemical; conditions: substrate Z-Gly-Pro-Arg-AMC
Sequence of recombinant human Cathepsin K (P43235 115-329): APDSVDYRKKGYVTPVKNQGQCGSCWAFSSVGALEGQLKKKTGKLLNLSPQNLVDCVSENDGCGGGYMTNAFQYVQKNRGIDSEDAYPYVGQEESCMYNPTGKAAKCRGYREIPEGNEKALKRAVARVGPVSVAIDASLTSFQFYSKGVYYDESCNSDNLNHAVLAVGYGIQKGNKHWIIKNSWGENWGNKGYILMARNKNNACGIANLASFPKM
Text: Inhibition of Human Cathepsin K
Materials: Microtiterplates (Optiplate-384 F were purchased from PerkinElmer (Prod. No. 6007270). The substrate Z-Gly-Pro-Arg-AMC was from Biomol (Prod.-No. P-142). L-Cysteine (Prod. No. 168149) was from Sigma. Sodium acetate was from Merck (Prod.-No. 6268.0250), EDTA was from Fluka (Prod.-No. 03680). The inhibitor E-64 was purchased from Sigma (Prod.-No. E3132). The recombinant human Cathepsin K proenzyme was purchased from Biomol (Prod. No. SE-367). All other materials were of highest grade commercially available.
The following buffers were used: Activation buffer: 32.5 mM sodium acetate, adjusted to pH 3.5 with HCl; Assay buffer: 150 mM sodium acetate, 4 mM EDTA, 20 mM L-Cysteine, adjusted to pH 5.5 with HCl,
To activate the proenzyme, 5 μl procathepsin K were mixed with 1 ul activation buffer, and incubated at room temperature for 30 min.
5 μL test compound (final concentration 0.1 nM to 100 μM) in aqua bidest (containing 4% DMSO, final DMSO concentration 1%) were mixed with 10 uL of Cathepsin K in assay buffer (final concentration 2 ng/μL) and incubated for 10 min. […] The plates were then incubated at room temperature for 60 min. Then, the reaction was stopped by adding 10 μL of E64 in assay buffer (final concentration 1 μM). The fluorescence in the wells was determined using a Molecular Devices SpectraMax M5 Fluorescence Reader (Ex 360 nm, Em 460 nm).
Each assay microtiter plate contains wells with vehicle controls (1% DMSO in bidest) as reference for non-inhibited enzyme activity (100% Ctl; high values) and wells with inhibitor (E64 in bidest+1% DMSO, final concentration […]) as controls for background fluorescence (0% Ctl; low values). The analysis of the data was performed by calculating the percentage of fluorescence in the presence of test compound in comparison to the fluorescence of the vehicle control after subtracting the background fluorescence: (RFU(sample)−RFU(background))*100/(RFU(control)−RFU(background))
Data from these calculations were used to generate IC50 values for inhibition of Cathepsin K, respectively.

Compound	half-life at 1 μM [1]	IC50 [2]	In vitro stability in human liver microsome incubations t½ ([1]; 1 μM test compound, 37° C., NADPH)	IC50 [3]
N#C[C@H](Cc1ccc(-c2cnn(-c3ccccc3)c2)cc1F)NC(=O)[C@H]1N[C@@H]2CC[C@H]1C2 [Example 171]	1.38 h	5 nM	–	–
N#C[C@H](Cc1ccc(N2CC3(CNC3)C2)cc1F)NC(=O)[C@H]1N[C@@H]2CC[C@H]1C2 [Example 327]	> 2.17 h	3.4 nM	–	–
CS(=O)(=O)c1cc(-c2ccc(C[C@@H](C#N)NC(=O)[C@H]3N[C@@H]4CC[C@H]3C4)c(F)c2F)ccc1C#N [Example 183]	> 2.17 h	8.8 nM	–	–
N#C[C@H](Cc1ccc(N2CCC3C(=O)NCCC3C2)cc1F)NC(=O)[C@H]1N[C@@H]2CC[C@H]1C2 (some centres unmarked) [Example 248]	> 2.17 h	18 nM	–	–
N#CC(Cc1ccc2c(c1)c(=O)[nH]c1ccc(N)cc12)NC(=O)[C@H]1N[C@@H]2CC[C@H]1C2 (some centres unmarked) [Example 314]	> 2.17 h	14 nM	–	–
N#C[C@H](Cc1ccc(-c2cnc3n2CCC3)cc1F)NC(=O)[C@H]1N[C@@H]2CC[C@H]1C2 [Example 221]	> 2.17 h	3.7 nM	–	–
N#C[C@H](Cc1ccc(N2CCOCC2)cc1F)NC(=O)[C@H]1N[C@@H]2CC[C@H]1C2 [Example 205]	> 2.17 h	25.9 nM	–	–
CN(C)CCCN1C(=O)Cc2ccc(-c3ccc(C[C@@H](C#N)NC(=O)[C@H]4N[C@@H]5CC[C@H]4C5)c(F)c3)cc21 [Example 277]	> 2.17 h	3 nM	–	–
CS(=O)(=O)c1ccn(-c2ccc(C[C@@H](C#N)NC(=O)[C@H]3N[C@@H]4CC[C@H]3C4)c(F)c2)c(=O)c1 [Example 266]	> 2.17 h	43.7 nM	–	–
CC1CN(c2ccc(C[C@@H](C#N)NC(=O)[C@H]3N[C@@H]4CC[C@H]3C4)c(F)c2)C(C)CN1C (some centres unmarked) [Example 196]	> 2.17 h	15.1 nM	–	–
N#C[C@H](Cc1ccc(-c2ccc(=O)[nH]c2)cc1F)NC(=O)[C@H]1N[C@@H]2CC[C@H]1C2 [Example 258]	> 2.17 h	7.9 nM	–	–
N#C[C@H](Cc1ccc(OCCN2CCNCC2)cc1F)NC(=O)[C@H]1N[C@@H]2CC[C@H]1C2 [Example 189]	> 2.17 h	10.4 nM	–	–
CNC(=O)Cc1ccc2[nH]c(=O)c3cc(CC(C#N)NC(=O)[C@H]4N[C@@H]5CC[C@H]4C5)ccc3c2c1 (some centres unmarked) [Example 306]	> 2.17 h	7 nM	–	–
N#CC(Cc1ccc2c(c1)c(=O)[nH]c1ccccc12)NC(=O)[C@H]1N[C@@H]2CC[C@H]1C2 (stereo partly drawn) [Example 9, (1S,2S,4R)—N-[1-cyano-2-(6-oxo-5H-phenanthridin-8-yl)ethyl]-3-azabicyclo[2.2.1]heptane-2-carboxamide]	> 2 h	9.6 nM	–	–
CN1CCN(c2ccc(C[C@@H](C#N)NC(=O)[C@H]3N[C@@H]4CC[C@H]3C4)c(F)c2)C(=O)C1 [Example 125]	> 2.17 h	206 nM	–	–
CC1(C)OC(=O)c2cc(-c3ccc(C[C@@H](C#N)NC(=O)[C@H]4N[C@@H]5CC[C@H]4C5)c(F)c3)ccc21 [Example 166]	1.57 h	3.3 nM	–	–
N#C[C@H](Cc1ccc(-c2cnc3cnccn23)cc1F)NC(=O)[C@H]1N[C@@H]2CC[C@H]1C2 [Example 194]	1.42 h	13.3 nM	–	–
COCCN1CCN(c2ccc(C[C@@H](C#N)NC(=O)[C@H]3N[C@@H]4CC[C@H]3C4)c(F)c2)CC1C (some centres unmarked) [Example 178]	> 2.17 h	7.4 nM	–	–
N#C[C@H](Cc1ccc(N2CCCN3CCCC3C2)cc1F)NC(=O)[C@H]1N[C@@H]2CC[C@H]1C2 (some centres unmarked) [Example 271]	–	–	2.17 h	–
CC1CN(C)CCN1c1ccc(C[C@@H](C#N)NC(=O)[C@H]2N[C@@H]3CC[C@H]2C3)c(F)c1 (some centres unmarked) [Example 192]	> 2.17 h	–	–	–
N#Cc1ccc2c(c1)[nH]c(=O)c1cc(CC(C#N)NC(=O)[C@H]3N[C@@H]4CC[C@H]3C4)c(F)cc12 (some centres unmarked) [Example 292]	1.57 h	0.9 nM	–	–

Compound	half-life at 1 μM [1]	IC50 [2]	In vitro stability in human liver microsome incubations t½ ([1]; 1 μM test compound, 37° C., NADPH)	IC50 [3]
N#Cc1ccc(-c2ccc(C[C@@H](C#N)NC(=O)[C@H]3N[C@@H]4CC[C@H]3C4)c(F)c2)o1 [Example 162]	> 2.17 h	2 nM	–	–
COCCN1C(C)CN(c2ccc(C[C@@H](C#N)NC(=O)[C@H]3N[C@@H]4CC[C@H]3C4)c(F)c2)CC1C (some centres unmarked) [Example 191]	1.52 h	11.2 nM	–	–
N#CC(Cc1ccc2c(c1)c(=O)[nH]c1c(F)cc(F)cc12)NC(=O)[C@H]1N[C@@H]2CC[C@H]1C2 (some centres unmarked) [Example 310]	> 2.17 h	9.4 nM	–	–
C[C@H]1CN(C)CCN1c1ccc(C[C@@H](C#N)NC(=O)[C@H]2N[C@@H]3CC[C@H]2C3)c(F)c1 [Example 188]	1.62 h	–	–	–
N#CC(Cc1ccc2c(c1)c(=O)[nH]c1c(F)cc(C(N)=O)cc12)NC(=O)[C@H]1N[C@@H]2CC[C@H]1C2 (some centres unmarked) [Example 291]	> 2.17 h	5.9 nM	–	–
N#CC(Cc1ccc2c(c1)c(=O)[nH]c1c(C(=O)NC3CC3)cccc12)NC(=O)[C@H]1N[C@@H]2CC[C@H]1C2 (some centres unmarked) [Example 341]	> 2.17 h	7.6 nM	–	–
N#C[C@H](Cc1ccc([C@H]2CCN3CCOC[C@H]3C2)cc1F)NC(=O)[C@H]1N[C@@H]2CC[C@H]1C2 [Example 284]	0.967 h	–	–	–
N#C[C@H](Cc1ccc(-c2ccc(C(=O)N3CCn4nccc4C3)s2)cc1F)NC(=O)[C@H]1N[C@@H]2CC[C@H]1C2 [Example 237]	–	4.6 nM	–	1900 nM
N#C[C@H](Cc1ccc(-c2csc(C(=O)N3CCN4CCOCC4C3)c2)cc1F)NC(=O)[C@H]1N[C@@H]2CC[C@H]1C2 (some centres unmarked) [Example 234]	–	3.8 nM	–	2900 nM
N#C[C@H](Cc1ccc(-c2csc(C(=O)N3CCN(C4CC4)CC3)c2)cc1F)NC(=O)[C@H]1N[C@@H]2CC[C@H]1C2 [Example 229]	–	1.7 nM	–	1600 nM
N#C[C@H](Cc1ccc(N2CCN(c3ccccc3)CC2)cc1F)NC(=O)[C@H]1N[C@@H]2CC[C@H]1C2 [Example 32, (1S,2S,4R)—N-[(1S)-1-cyano-2-[2-fluoro-4-(4-phenylpiperazin-1-yl)phenyl]ethyl]-3-azabicyclo[2.2.1]heptane-2-carboxamide]	–	4.5 nM	–	3900 nM
CC(O)Cc1cn(-c2ccc(C[C@@H](C#N)NC(=O)[C@H]3N[C@@H]4CC[C@H]3C4)c(F)c2)nn1 (some centres unmarked) [Example 101]	–	23.9 nM	–	6500 nM
N#CC(Cc1ccc2c(c1)[nH]c1ccccc12)NC(=O)[C@H]1N[C@@H]2CC[C@H]1C2 (some centres unmarked) [Example 203]	–	23.3 nM	–	8400 nM
CCS(=O)(=O)c1ccc(-c2ccc(C[C@@H](C#N)NC(=O)[C@H]3N[C@H]4C[C@@H]3[C@@H]3C[C@@H]34)c(F)c2)cc1 [Example 151]	–	36.9 nM	–	4800 nM
Cc1noc(C)c1-c1ccc(C[C@@H](C#N)NC(=O)[C@H]2N[C@@H]3CC[C@H]2C3)c(F)c1 [Example 121]	–	156 nM	–	5200 nM
Cn1cc(-c2ccc(C[C@@H](C#N)NC(=O)[C@H]3N[C@@H]4CC[C@H]3C4)c(F)c2)c(C(F)(F)F)n1 [Example 118]	–	44.3 nM	–	3900 nM
CS(=O)(=O)c1cccc(-c2ccc(C[C@@H](C#N)NC(=O)[C@H]3N[C@H]4C[C@@H]3[C@@H]3C[C@@H]34)c(F)c2)c1 [Example 144]	–	26.3 nM	–	11100 nM
Cn1ncc2ccc(-c3ccc(C[C@@H](C#N)NC(=O)[C@H]4N[C@H]5C[C@@H]4[C@@H]4C[C@@H]45)c(F)c3)cc21 [Example 70]	–	10.2 nM	–	12000 nM
N#CC(Cc1ccc(-c2ccc3c(c2)CCNC3=O)cc1F)NC(=O)[C@H]1N[C@H]2C[C@@H]1[C@@H]1C[C@@H]12 (some centres unmarked) [Example 148]	–	30.4 nM	–	14600 nM
Cc1nc(C)c(-c2ccc(C[C@@H](C#N)NC(=O)[C@H]3N[C@@H]4CC[C@H]3C4)c(F)c2)s1 [Example 80]	–	12.4 nM	–	4100 nM
CNS(=O)(=O)c1ccc(-c2ccc(C[C@@H](C#N)NC(=O)[C@H]3N[C@H]4C[C@@H]3[C@@H]3C[C@@H]34)c(F)c2)cc1 [Example 150]	–	38.6 nM	–	9300 nM
